Measurements as given in patent publication US11597724B2, “Herbicidally active 3-phenylisoxazoline-5-carboxamides of tetrahydro and dihydrofuran carboxylic acids and esters” (Bayer Aktiengesellschaft, priority 2017, dated 2023).

Assays:
Format in all cases: in vivo
Hordeum murinum = test: Pre-emergence herbicidal activity against HORMU; conditions: dosage 80 g/ha; for pest or weed control at 80 g/ha: Hordeum murinum, 504 h
Description: (§1) 1. Pre-Emergence Herbicidal Action and Crop Plant Compatibility Seeds of monocotyledonous and dicotyledonous weed plants and crop plants are placed in plastic or wood fiber pots and covered with soil. The compounds of the invention, formulated in the form of wettable powders (WP) or as emulsion concentrates (EC), are then applied onto the surface of the covering soil as aqueous suspension or emulsion with addition of 0.5% additive at a water application rate of 600 l/ha (converted). After the treatment, the pots are placed in a greenhouse and kept under good growth conditions for the trial plants. After about 3 weeks, the effect of the preparations is scored visually in comparison with untreated controls as percentages. For example, 100% activity=the plants have died, 0% activity=like control plants. ECHCG: Echinochloa crus-galli HORMU: Hordeum murinum

Pharbitis purpurea = test: Pre-emergence herbicidal activity against PHBPU; conditions: dosage 80 g/ha; for pest or weed control at 80 g/ha: Ipomoea purpurea, 504 h
Description: as §1, with “LOLRI: Lolium rigidum PHBPU: Pharbitis purpurea” for “ECHCG: Echinochloa crus-galli HORMU: Hordeum murinum”

Viola tricolor = test: Pre-emergence herbicidal activity against VIOTR; conditions: dosage 80 g/ha
Description: as §1, with “VIOTR: Viola tricolor” for “ECHCG: Echinochloa crus-galli HORMU: Hordeum murinum”

Lolium rigidum = test: Pre-emergence herbicidal activity against LOLRI; conditions: dosage 80 g/ha; for pest or weed control at 80 g/ha: Lolium rigidum, 504 h
Description: as §1, with “LOLRI: Lolium rigidum PHBPU: Pharbitis purpurea” for “ECHCG: Echinochloa crus-galli HORMU: Hordeum murinum”

Echinochloa crus-galli = test: Pre-emergence herbicidal activity against ECHCG; conditions: dosage 80 g/ha, scored visually after about 3 weeks vs untreated controls (100% = plants have died, 0% = like control plants); for pest or weed control at 80 g/ha: Echinochloa crus-galli, 504 h
Description: as §1

[1] = Pre-emergence treatment, summary over harmful plants; conditions: 504 h, application rate of 0.08 kg of active substance or less per hectare, read-out: herbicidal action, pre-emergence treatment (very good activity)
Description: 1. Pre-Emergence Herbicidal Action and Crop Plant Compatibility
as §1, with “Seeds” for “1. Pre-Emergence Herbicidal Action and Crop Plant Compatibility Seeds”, “plants.” for “plants. ECHCG: Echinochloa crus-galli HORMU: Hordeum murinum”
As shown by the results, compounds according to the invention such as, for example, the compounds No. I-21 and other compounds from the tables (for example I-10, I-26, I-09, I-30, I-28, I-29, I-27, I-01, I-06, I-34, I-19, I-11, I-36, I-37, I-38, I-41, I-42, I-43, I-44, I-46, I-49) have, when used for pre-emergence treatment, very good activity (80% to 100% herbicidal action) against harmful plants such as Abutilon theophrasti, Alopecurus myosuroides, Amaranthus retroflexus, Avena fatua, Echinochloa crus-galli, Hordeum murinum, Lolium rigidum, Pharbitis purpurea, Polygonum convolvulus, Setaria viridis, Stellaria media, Veronica persica and Viola tricolor at an application rate of 0.08 kg of active substance or less per hectare.

Structure (SMILES)	pest or weed control at 80 g/ha (Hordeum murinum)	Pre-emergence herbicidal activity against VIOTR in % (Viola tricolor)	pest or weed control at 80 g/ha (Lolium rigidum)	pest or weed control at 80 g/ha (Echinochloa crus-galli)	pest or weed control at 80 g/ha [1]	further results
C=C[C@]1(C(=O)N[C@H]2CO[C@@H](C(=O)OCC)C2)CC(c2cc(F)cc(F)c2)=NO1 (mixture of isomers) [I-35, ethyl cis-4-[[(5S)-3-(3,5-difluorophenyl)-5-vinyl-4H-isoxazole-5-carbonyl]amino]tetrahydrofuran-2-carboxylate]	100%	100%	100%	100%	–	pest or weed control at 80 g/ha (Pharbitis purpurea): 90%
C=C[C@]1(C(=O)N[C@H]2CO[C@@H](C(=O)OC(C)(C)C)C2)CC(c2cc(F)cc(F)c2)=NO1 (mixture of isomers) [I-38, tert-butyl cis-4-[[(5S)-3-(3,5-difluorophenyl)-5-vinyl-4H-isoxazole-5-carbonyl]amino]tetrahydrofuran-2-carboxylate]	90%	100%	100%	100%	80 to 100%	–
CC1(C(=O)NC2COC(C(=O)O)C2)CC(c2cc(F)cc(F)c2)=NO1 (mixture of isomers) [I-41]	–	–	–	–	–	Pre-emergence herbicidal activity against HORMU in % (Hordeum murinum): 100%; Pre-emergence herbicidal activity against PHBPU in % (Pharbitis purpurea): 90%; Pre-emergence herbicidal activity against LOLRI in % (Lolium rigidum): 100%; Pre-emergence herbicidal activity against ECHCG in % (Echinochloa crus-galli): 100%
CC(C)(C)OC(=O)C1CC(NC(=O)C2(C)CC(c3cc(F)cc(F)c3)=NO2)CO1 (mixture of isomers) [I-42]	–	100%	–	–	–	Pre-emergence herbicidal activity against HORMU in % (Hordeum murinum): 100%; Pre-emergence herbicidal activity against PHBPU in % (Pharbitis purpurea): 90%; Pre-emergence herbicidal activity against LOLRI in % (Lolium rigidum): 100%; Pre-emergence herbicidal activity against ECHCG in % (Echinochloa crus-galli): 100%
CCOC(=O)C1CC(NC(=O)C2(C)CC(c3cc(F)cc(F)c3)=NO2)CO1 (mixture of isomers) [I-43]	–	90%	–	–	–	Pre-emergence herbicidal activity against HORMU in % (Hordeum murinum): 90%; Pre-emergence herbicidal activity against LOLRI in % (Lolium rigidum): 100%; Pre-emergence herbicidal activity against ECHCG in % (Echinochloa crus-galli): 100%
CCOC(=O)[C@H]1C[C@@H](NC(=O)C2(C)CC(c3cccc(F)c3)=NO2)CO1 (mixture of isomers) [I-30, ethyl cis-4-[[(5RS)-3-(3-fluorophenyl)-5-methyl-4H-isoxazole-5-carbonyl]amino]tetrahydrofuran-2-carboxylate]	90%	–	100%	–	80 to 100%	–
CC(C)OC(=O)[C@H]1C[C@@H](NC(=O)C2(C)CC(c3cccc(F)c3)=NO2)CO1 (mixture of isomers) [I-32, isopropyl cis-4-[[(5RS)-3-(3-fluorophenyl)-5-methyl-4H-isoxazole-5-carbonyl]amino]tetrahydrofuran-2-carboxylate]	–	–	100%	–	–	–
CC(C)(C)OC(=O)[C@H]1C[C@@H](NC(=O)C2(C)CC(c3cccc(F)c3)=NO2)CO1 (mixture of isomers) [I-33, tert-butyl cis-4-[[(5RS)-3-(3-fluorophenyl)-5-methyl-4H-isoxazole-5-carbonyl]amino]tetrahydrofuran-2-carboxylate]	80%	–	–	–	–	–
CC1(C(=O)N[C@H]2CO[C@@H](C(=O)OCc3ccccc3)C2)CC(c2cccc(F)c2)=NO1 (mixture of isomers) [I-34, benzyl cis-4-[[(5RS)-3-(3-fluorophenyl)-5-methyl-4H-isoxazole-5-carbonyl]amino]tetrahydrofuran-2-carboxylate]	–	–	100%	80%	80 to 100%	–
COC(=O)[C@H]1C[C@@H](NC(=O)C2(C)CC(c3cc(F)cc(F)c3)=NO2)CO1 (relative stereo) [I-01, methyl cis-4-[[3-(3,5-difluorophenyl)-5-methyl-4H-isoxazole-5-carbonyl]amino]tetrahydrofuran-2-carboxylate]	–	–	–	80%	80 to 100%	–
C=CC1(C(=O)N[C@H]2CO[C@@H](C(=O)O)C2)CC(c2cc(F)cc(F)c2)=NO1 (relative stereo) [I-21, cis-4-[[3-(3,5-difluorophenyl)-5-vinyl-4H-isoxazole-5-carbonyl]amino]tetrahydrofuran-2-carboxylic acid]	–	–	–	100%	80 to 100%	pest or weed control at 80 g/ha (Pharbitis purpurea): 80%
C=C[C@]1(C(=O)N[C@H]2CO[C@@H](C(=O)OC)C2)CC(c2cc(F)cc(F)c2)=NO1 (single isomer, unassigned) [I-12]	100%	100%	100%	90%	–	–
COC(=O)C1COCC1NC(=O)C1(C)CC(c2cc(F)cc(F)c2)=NO1 (stereo not drawn) [I-19, methyl 4-[[3-(3,5-difluorophenyl)-5-methyl-4H-isoxazole-5-carbonyl]amino]tetrahydrofuran-3-carboxylate]	–	–	–	–	80 to 100%	–
C=C[C@]1(C(=O)NC2COCC2C(=O)OC)CC(c2cc(F)cc(F)c2)=NO1 (stereo partly drawn) [I-26, methyl 4-[[(5S)-3-(3,5-difluorophenyl)-5-vinyl-4H-isoxazole-5-carbonyl]amino]tetrahydrofuran-3-carboxylate]	–	–	–	90%	80 to 100%	pest or weed control at 80 g/ha (Pharbitis purpurea): 90%
COC(=O)C1COCC1NC(=O)C1(OC)CC(c2cc(F)cc(F)c2)=NO1 (stereo not drawn) [I-27, methyl 4-[[3-(3,5-difluorophenyl)-5-methoxy-4H-isoxazole-5-carbonyl]amino]tetrahydrofuran-3-carboxylate]	–	90%	–	–	80 to 100%	–
COC(=O)C1COCC1NC(=O)[C@@]1(C)CC(c2cc(F)cc(F)c2)=NO1 (stereo partly drawn) [I-28, methyl 4-[[(5R)-3-(3,5-difluorophenyl)-5-methyl-4H-isoxazole-5-carbonyl]amino]tetrahydrofuran-3-carboxylate]	–	–	–	90%	80 to 100%	pest or weed control at 80 g/ha (Pharbitis purpurea): 90%
COC(=O)C1COCC1NC(=O)C1(OC)CC(c2cc(Cl)cc(Cl)c2)=NO1 (stereo not drawn) [I-29, methyl 4-[[3-(3,5-dichlorophenyl)-5-methoxy-4H-isoxazole-5-carbonyl]amino]tetrahydrofuran-3-carboxylate]	–	–	–	–	80 to 100%	–
COC(=O)C1=C[C@H](NC(=O)C2(C)CC(c3cccc(F)c3)=NO2)CO1 (stereo partly drawn) [I-39, methyl (3S)-3-[[3-(3-fluorophenyl)-5-methyl-4H-isoxazole-5-carbonyl]amino]-2,3-dihydrofuran-5-carboxylate]	100%	–	100%	–	–	–
COC(=O)C1=C[C@@H](NC(=O)C2(C)CC(c3cccc(F)c3)=NO2)CO1 (stereo partly drawn) [I-46, methyl (3R)-3-[[3-(3-fluorophenyl)-5-methyl-4H-isoxazole-5-carbonyl]amino]-2,3-dihydrofuran-5-carboxylate]	100%	–	100%	90%	80 to 100%	–
COC(=O)[C@@]1(OC)C[C@@H](NC(=O)C2(C)CC(c3cccc(F)c3)=NO2)CO1 (stereo partly drawn) [I-47, methyl (2R,4R)-4-[[3-(3-fluorophenyl)-5-methyl-4H-isoxazole-5-carbonyl]amino]-2-methoxytetrahydrofuran-2-carboxylate]	90%	–	–	–	–	–
